Measured values reported in patent US20240374628A1 (Whispergenics. Inc., priority 2021, published 2024).

Columns and labels:
BIRC5 expression = assay: Cardiac glycosides that inhibit BIRC5 expression in colorectal cancer; type: cell-based
Caco2 = assay: CellTiter-Glo cell viability, Caco2; type: cell-based, human; conditions: 48 h, dose curve 625 μM-40000 μM, FIG. 3
Procedure: (§1) Cell lines: Human colon cancer cell lines CCD-18Co and Caco2 (American Type Culture Collection [ATCC], Bethesda, MD) were maintained in Eagle's Minimum Essential Medium (Thermo Fisher Scientific, MA) supplemented with 100,000 U/L of penicillin, 100,000 μg/L of streptomycin, and 20% fetal bovine serum (FBS). HT29 (American Type Culture Collection [ATCC], Bethesda, MD) was maintained in McCoy's 5a Medium Modified (Thermo Fisher Scientific, MA) supplemented with 100,000 U/L of penicillin, 100,000 μg/L of streptomycin, and 10% fetal bovine serum (FBS). The following cells were also tested: MDA 231 Breast Cancer Cells, U87 Glioblastoma Cells, U251 Glioblastoma Cells and Dul45 Prostate Cancer Cells. All cells were maintained in Eagles Medium as described above.
(§2) The cells were subjected to cell viability assays using The CellTiter-Glo luminescent cell viability kit (Promega, catalog number: G7570). luminescence was measured using microplate luminometer (luminoskan™ ascent, Thermo-Fisher Scientific, MA). Background luminescence was measured in medium without cells and subtracted from experimental values.

[1] = tested on: human colon cancer cell lines (CCD-18Co, Caco2, HT29); assay: CellTiter-Glo cell viability, three human colon cancer cell lines; type: cell-based; conditions: dose-response curves, 48 h, FIGS. 1-3
Procedure: as §1, with “The following cells were also tested: MDA 231 Breast Cancer Cells, U87 Glioblastoma Cells, U251 Glioblastoma Cells and Dul45 Prostate Cancer Cells.” left out
as §2

HT29 = assay: CellTiter-Glo cell viability, HT29; type: cell-based, human; conditions: 48 h, dose curve 12.5 nM-800 nM, FIG. 1
Procedure: as §1, §2

Row | Compound | inhibition of BIRC5 expression (BIRC5 expression) | sensitivity of cell viability (Caco2) | cell viability, single drug alone [1] | sensitivity of cell viability (HT29)
1 | C[C@]12CC[C@H](O)C[C@H]1CC[C@@H]1[C@@H]2CC[C@]2(C)[C@@H](C3=CC(=O)OC3)CC[C@]12O [Digitoxigenin] | inhibit BIRC5 expression | – | – | –
2 | CN(C)C(=N)N=C(N)N [Metformin] | – | sensitive | reduced cell viability to varying degrees | –
3 | C[C@@H]1O[C@@H](O[C@H]2C[C@@H](O)[C@]3(CO)[C@H]4[C@H](O)C[C@]5(C)[C@@H](C6=CC(=O)OC6)CC[C@]5(O)[C@@H]4CC[C@]3(O)C2)[C@H](O)[C@H](O)[C@H]1O [Ouabain] | inhibit BIRC5 expression | – | – | –
4 | C[C@]12CC[C@H](O)C[C@H]1CC[C@@H]1[C@@H]2CC[C@]2(C)[C@@H](c3ccc(=O)oc3)CC[C@]12O [bufalin] | inhibit BIRC5 expression | – | – | –
5 | CC(=O)O[C@H]1C[C@H](O[C@H]2[C@@H](O)C[C@H](O[C@H]3[C@@H](O)C[C@H](O[C@H]4CC[C@@]5(C)[C@H](CC[C@@H]6[C@@H]5C[C@@H](O)[C@]5(C)[C@@H](C7=CC(=O)OC7)CC[C@]65O)C4)O[C@@H]3C)O[C@@H]2C)O[C@H](C)[C@H]1O[C@@H]1O[C@H](CO)[C@@H](O)[C@H](O)[C@H]1O [Lanatoside C] | inhibit BIRC5 expression | – | – | –
6 | C[C@H]1O[C@@H](O[C@H]2[C@@H](O)C[C@H](O[C@H]3[C@@H](O)C[C@H](O[C@H]4CC[C@@]5(C)[C@H](CC[C@@H]6[C@@H]5C[C@@H](O)[C@]5(C)[C@@H](C7=CC(=O)OC7)CC[C@]65O)C4)O[C@@H]3C)O[C@@H]2C)C[C@H](O)[C@@H]1O [Digoxin] | inhibit BIRC5 expression | – | reduced cell viability to varying degrees | very sensitive
